The text below walks through data of US20250152720A1, “NEW CARBOHYDRATE DERIVATIVES AS MIMETICS OF BLOOD GROUP A AND B ANTIGENS” (REMAB THERAPEUTICS SL, priority 2022, published 2025).

The test system of experiment [1] is purified anti-B antibodies binding to red blood cells (Group B). The experiment in a line: Flow Cytometry inhibition of binding of purified anti-B antibodies to red blood cells (Group B) (Example 6.4). It counts as cell-based, human. As to conditions: anti-B 1 μg/mL. As to the method: The capacity to inhibit the binding of purified anti-B antibodies to red blood cells (Group B), measured by Flow Cytometry was tested. The Flow Cytometry assay was performed as follows: […] Afterwards, primary antibodies with the corresponding inhibitor were added. […] The samples were then incubated for 30 minutes at 37° C. (in the dark, mild horizontal shaking 30-40 rpm). Afterwards the samples were washed twice with PBS (centrifuged at 300 g. 3 minutes), and the supernatants were removed by aspiration. Then, 50 μL of the corresponding fluorochrome secondary anti-Ig antibody (7.5 μg/mL of goat anti-human IgG Alexa Fluor 647. Jackson Immunoresearch, West Grove, PA, USA, and 20 μg/mL of goat anti-human IgM C[…], Sigma-Aldrich, St. Louis, MO, USA) diluted in PBS were added to the RBC and incubated for 35 minutes at 37° C. (in the dark). The samples were washed twice with PBS (centrifuged at 300 g, 3 minutes), and the supernatants were removed by aspiration. Finally, the cells were resuspended in filtered PBS. Cells incubated with only PBS were used as a negative control for the experiment. Cells incubated only with secondary antibodies were considered background signals. Flow Cytometry analysis was performed on a Beckman Coulter Gallios Flow Cytometry analyzer using the blue (488 nm-22 mW) and red (635 nm-25 mW) solid-state laser as exciting source. Every single FACS determination recorded about 20,000 total events. Data was analyzed with KALUZA software (Beckman Coulter, CA, USA). The inhibitory capacity was expressed as a percentage of removal referred to the baseline condition (in ordinates).
For orientation: A flow cytometer gives signals particle by particle.

The test system of experiment [2] is purified human anti-A antibodies (IgG, IgM). To be noted: IgG 0.075 ug/mL and IgM 0.185 ug/mL; glycoconjugate at 10, 100 and 400 μg/mL; versus Comparative-2; FIG. 10.
Description: (§1) ELISA: Maxisorp 96-well flat-bottom plates (Thermo Scientific, Waltham, MA, US) were coated for 18 hours at 4° C. with 50 μL/well of 10 μg/mL of the following PAA-glycoconjugates (as disclosed above in Table 3): 1 (B natural type2) and 5 (A natural type2); in coating buffer (0.05 M carbonate-bicarbonate, pH 9.6). Wells coated only with 50 μL/well of 10 μg/mL of PAA were considered the background of each sample assessed. After coating, the plates were washed three times with 200 μL/well of 0.1% (v/v) PBST using an autowasher and blocked for 1 hour at 4° C. with 100 μL/well of 0.1% (v/v) PBST+1% (w/v) BSA. Washing steps were repeated.
The tubes were incubated for 18 hours at 4° C. and then a convenient dilution of inhibition mix to the ELISA plate (50 μL/vell) was added and incubated for 0.5 hours at 25° C. in a rocker.
(§2) After washing steps, plates were incubated for 0.5 hours at 25° C. […] The reaction was stopped with 50 μL/well of 3N HCl, and the resulting absorbance was registered at 490 nm using a microplate reader.
To quantify the antibody levels. […]
The percentage of removal (%) was calculated referred to the baseline condition (without inhibitor compound).
Experiment [3] relates to purified human anti-B antibodies (IgG, IgM). To be noted: IgG 0,095 ug/mL and IgM 0.045 ug/mL; increasing glycoconjugate concentrations (0-400 μg/mL); versus Comparative-1; FIG. 11.
Description: as §1
The inhibition samples were prepared in separate tubes using a fixed concentration of anti-A or anti-B antibodies, and an increasing concentration of the following polylysine glycoconjugate inhibitors, prepared in Example 4 (0-400 μg/mL): • Comparative-1 (comprising natural B type-II antigen) • Example 4.1 (comprising analogue of Example 1.1) • Comparative-2 (comprising natural A type-II antigen) • Example 4.8 (comprising analogue of Example 1.8) […]
as §2
The percentage of removal (%) was calculated referred to the baseline condition (without inhibitor compound). […]

With “Polylysine DP1000 Conjugate with Galα1-3(Fucα1-2)Galβ1-4GlcNAcβB (Type2) Tetrasaccharide [Comparative-1, reference compound]”, in experiment [1] (inhibitor 0.25 ug/mL), the “percentage of removal referred to the baseline condition, IgG” value was found to be 15.12% and the “percentage of removal referred to the baseline condition, IgM” value was determined as 26.4%.

With “Polylysine DP1000 Conjugate with Trisaccharide GlcNAcα1-3(Fucα1-2)Galβ (Example 1.8) (25%) [Example 4-8]”, the “capacity to inhibit human purified anti-A antibodies (percentage of removal)” value in experiment [2] is listed as “higher capacity to inhibit human purified anti-A antibodies than the comparator”.

In the case of “Polyfysine DP1000 conjugate with tetrasaccharide Glcα1-3(Fucα1-2)Galβ1-4GlcNAcβ (Example 1.1) (25%) [Example 4.1]”, in experiment [1] (inhibitor 2.5 ug/mL), the “percentage of removal referred to the baseline condition, IgG” value is reported as 5.64% and the “percentage of removal referred to the baseline condition, IgM” value is 6.35%. Besides, in experiment [3], the “capacity to inhibit human purified anti-B antibodies (percentage of removal)” value is “lower capacity to inhibit human purified anti-B antibodies than the natural comparator”.
